Laboratory results from patent US10195243B2, “Process of making wine from a whole grape bunch, process of making pomace juice and powder, and method of producing beverages on the basis of juice and powder from a grape bunch” (priority 2014, dated 2019).

System: Molt-4-luc leukemia
Conditions: positive control group
Experimental: The objective was to evaluate the anti-tumor efficacy of different compounds in leukemia model in Balb/c nude mice.
Female Balb/c nude mice, with a body weight of approximately 20 grams, were obtained from an approved vendor (Shanghai BK Laboratory Animal Co., LTD., Shanghai, China). Upon arrival, animals were assessed as to their general health by a member of a veterinary staff or authorized personnel. Animals were acclimated for at least three days (upon arrival at the experiment room) before being used for the study. Animals were housed in groups during acclimation and individually housed during in-life. […] Temperature and relative humidity were monitored daily. […]
The tumor cells were routinely subcultured twice weekly. The cells growing in an exponential growth phase were harvested and counted for tumor inoculation. […]
Mice were randomly assigned to 16 groups (vehicle control, positive control, and 14 testing article groups) based on the body weight. […] Whole body and metastatic bioluminescence were measured and recorded.
The inoculated mice were weighted and intraperitoneally injected luciferin at 150 mg/kg. […] The bioluminescence of the whole animal body, including primary and metastatic tumors, was measured and images are recorded.
Bioluminescence (BL) of the whole animal body, including primary and metastatic tumors, was measured and images were recorded using a fixed intensity scale. […]

O=P1(N(CCCl)CCCl)NCCCO1 (centres unmarked) [Cyclophosphamide]
mice died (day 111 after cell injection, the mouse showed bioluminescence signal): one | outcome until day 150: died
